# Reference: US7683031B2, “Short peptides from the ‘2nd loop’ of 7 transmembrane receptor which selectively modulate signal transduction” (Yissum Research Development Company of the Hebrew …, priority 2002, dated 2010)
# What was measured:
# [1] = tested on: aortic ring; assay: Aortic ring assay (capillary growth ex vivo in collagen matrix gel); format: cell-based, rat; details: for aortic ring neovascularization in presence of G-protein inhibitor PTX / aortic ring neovascularization: S1P 100 μm, R002L103 20 μm, FIG. 4; for aortic ring neovascularization in presence of G-protein inhibitor PTX: PTX 100 nm/ml; for aortic ring neovascularization: without PTX; for neovascularization effect, each agent alone / angiogenetic effect, each agent alone: R002L103 20 μg; for angiogenetic effect, each agent alone: VEGF 12 nm/ml
# Protocol: The following are suitable in vivo or ex vivo modes for angiogenesis: • (1) Aortic ring—where sprouting of newly formed blood vessels is tested whole mounts of aortic rings obtained from rats (see below) • (2) Eye assay—where formation of new blood vessels in the cornea of the animal as a response to an FGF-implanted pellet is determined (see below). • (3) Sponge assay—where infiltration of new blood vessels into a sponge implanted s.c. in an experimental animal is determined (see below) • (4) Regression of pre-formed vasculature in tumors (Benjamin L. E. and Kesshet E. PNAS, 94, 8761-8766, (1997)). • (5) Re-establishment of circulation in dissected vessels in the limbs of experimental animals. Experimental Procedures: 1. Aortic Ring-Assay:
# The modification of previously described assay (Nicosia, R. F. and Ottinetti, A. “Growth of microvessels in serum-free matrix culture of rat aorta.” Lab. Invest. 63:115-122. 1990) for capillary growth ex vivo was used. The assay is based on the phenomenon of endothelial cells proliferation from freshly prepared aorta placed into collagen matrix gel, that finally formed new capillary system.
# The experiments were carried out on two lines of animals—Sabra and Sprague-Dawley rats, males of 200-250 g-body weight (1-2 month old). Rats were acclimated to vivarium for 4-10 days before their use in study protocol. Each group (from 2 to 4) of the animals was housed in separate cage and fed food and water ad libitum.
# Animals were sacrificed by decapitation after ether anesthesia Thoracic aortas were dissected and immediately transferred to a Petri dish with bio-mpm-1. The fibroadipose tissue and small vessels around aorta was carefully removed under a dissecting microscope, 1 mm-long aortic rings were sectioned and extensively (2-3 times) rinsed in bio-mpm-1 containing antibiotics (% cat.) (Nicosia and Ottinetti, 1990).
# The collagen matrix gel solution (see above) was added to 24-well plate (0.4 ml to each well) and collagen polymerization was allowed for 15 min at 37° C. The aorta rings were transferred to the collagen gel solution (in order to glue them to the bottom layer of the gel) and then placed to the center of each well. In mice, 3 rings are embedded in the same well. After 15 min incubation of the plates at 37° C. another 0.4 ml of the collagen solution was carefully added on the top of the ring. After the gel is formed 0.4 ml of Serum-Free Endothelial Growth Medium (Rhenium, cat. 17601-030) or bio-mpm-1 (Beit Haemeq cat. 05-060-1) was added to each well. Rings were incubated in 37° c. and 10% CO2. Medium is replaced every 2-3 days.
# Compound of the invention were added next day after collagen gel formation in concentration 10-20 uM. compounds were dissolved for 10 mM stock in 100% DMSO. Dilution in 0.1% BSA in PBS to 400 uM stock were done for each AR experiment de novo. The compounds were re-added to AR during each medium changing till well developed capillary system in control or experimental wells.
# Fixation was carried out by adding of Buffered Formalin 4% (was obtained from BioLab, cat. 66554) 1.5 ml in each well. An hour later solution was changed to fresh Formalin in order to better fixation (overnight).
# We used Crystal Violett (Gencian Violett) 0.02% in Ethanol Abs. as staining solution (1 ml for each well overnight at room temperature). After staining, wells were washed massively with 0.02% Sodium Azide water solution during two or three days till transparent matrix.
# Digital pictures were analyzed using ImagePro™ software. The total capillary length of at least 6 AR was measured. Dividing the total capillary length to AD diameter normalized the data.
# [2] = tested on: B16 cells; assay: Melanogenesis in B16 cells (melanin, absorbance 405 nm); format: cell-based; details: tbi formulation; for EC50: read-out: EC 50 melanogenesis; for melanogenesis induction: β3-derived peptides up to 2.5 μM, FIG. 14-18
# Protocol: (§1) B16 melanocyet cells were grown in DMEM with 4 mM L-glutamine, supplemented with 10% bovine calf serum in a 37° C. humidified incubator with 5% CO2. The day before the assays, 100 μl of 3×10^4 cells/ml were plated in 96-well microtiter plates overnight.
# The day after B16 cells culturing, differential concentrations of stimulator (peptides or αMSH as positive control) were added. The cells were incubated for another 3 days then adding 70 ul of 1N NaOH stopped the reaction. The production of melanin was measured after 24 h as the optical absorbance in […].
# “tbi” Formulation: peptides (10 mM final) were dissolved in DMSO (final 8%) and 2M Ammonium Bicarbonate (32% final) were added, the mixture was heated for 40 min then 2M HEPES pH 7.5 60% (final) were added.
# [3] = tested on: cornea of mice; assay: Eye assay (neovascularization in the cornea after pellet implantation); format: in vivo; details: five days after implantation; for blood vessels course of growth: FIG. 10
# Protocol: The modification of the assay previously described in “A model of angiogenesis in the mouse cornea” B. M. Kenyon, E. E. Voest, C. C. Chen, E. Flynn J. Folkman and R. J. D'Amato Investigative Ophthalmology & Visual Science, July 1996, Vol. 37, No. 8 1625-1632 was used. The assay is based on the phenomena of formation of new blood vessels in the cornea of mice in response to the implantation in the cornea of a pellet impregnated with FGF.
# 1. To prepare—Hydron concentrated stock solution (120 mg/ml in ethanol Abs.) • Hydron diluted stock solution (60 mg/ml in ethanol Abs.) • sucralfate stock solution (500 mg/ml in solution S sterile!). • 10 mg peptide.
# 2. Add 30 μl of solution S to peptide (or 10 μl of solution S and 20 μl of FGF).
# 3. Add 20 μl of sucralfate stock solution—vortex, speedvac for 5 min (more if needed).
# 4. Add […] hydron diluted stock solution to sucralfate+FGF+peptide pellet.
# Mice were anesthetized with Ketamin/Rompun Solution (for dosage and solutions preparation see standard anesthetic procedure). The eye is topically anesthetized with Localin (Benoxynate HCl 0.4%, Dr. Fisher, Pharmaceutical Labs, P.O.B. 39071, Tel-Aviv 61390). Using a binocular microscope, a central intrastromal linear keratotomy is performed with a surgical blade parallel to the insertion of the lateral rectus muscle. Approximate length of the cut is 0.5-0.6 mm length. The globe is proptosed with a forceps. A lamellar micropocket is dissected toward the temporal limbus using the modified von Graefe knife 2×30 mm. All following procedures must be done without proptosis. A pellet is placed on the corneal surface in the base of the pocket and advanced to the temporal end of the pocket with one arm of the forceps. The distance between pellet and limbal vessel is measured. For FGF containing pellets, the pocket must be extended within 1 mm of the limbus. Antibiotic and antimycotic ointment are applied to the operated eye to prevent infection and additional irritation of the cornea.
# Measurements were done at 5th and 7th days after implantation. In the case of high stimulation inspections were done twice a week till full degradation. The maximum vessel length of neovascularization zone, extending from the limbal vessel toward the pellet was measured. The econtiguous circumferential zone of neovascularization was measured as clock hours (where 30° are equals 1 clock hour.)
# [4] = tested on: β2-adrenergic transfected HEK293 cells; assay: cAMP assay in β2-adrenergic transfected HEK293 cells; format: cell-based; details: 10 μM peptide, after 1 h, FIG. 11
# Protocol: The HEK293 cells were grown in Dulbecco's Modified Eagle's medium (DMEM) with 4 mM L-glutamine, supplemented with 10% horse serum in a 37° C. humidified incubator with 5% CO2. HEK293 cells were transfected using the fuGENE 6 Transfection Reagent. The following amounts of each expression plasmid were used for transfection of each well in a 6-well culture plate: 3 ug of pBK-flag β2AR; 3 ug of pRK5-GRK2 or in combination of 1.5 ug of pBK-flag β2AR and pRK5-GRK2. Cells were harvested after 24 h and transferred into 96-well culture plate (10^5 cells/ml) and a cAMP assay was carried out 48 h post transfection.
# (§2) At the day of the assay medium was replaced with serum free medium containing 0.5 mM 3-isobutyl-methylxanthine and the experimental peptides were added for 60 min. The incubation was stopped by replacing the medium with lysis regent supplied in a commercial cAMP kit.
# (§3) cAMP levels were determined using cAMP enzymeimmunoassay (EIA) system Biotra Amersham Pharmacia Biotech.
# [5] = tested on: B16 cells; assay: cAMP assay in B16 cells; format: cell-based; details: 10 μM peptide, after 1 h, FIG. 12
# Protocol: as §1, §2, §3
# [6] = tested on: 3T3L1 adipocytes cells; assay: cAMP assay in 3T3L1 adipocytes cells; format: cell-based; details: FIG. 13
# Protocol: 3T3L1 fibroblast were maintained in DMEM with 4 mM L-glutamine, supplemented with 10% calf serum in a 37° C. humidified incubator with 5% CO2. To differentiate fibroblast into adipocytes, cells were grown for 2 days after confluence. The media was then changed to DMEM containing 10% fetal bovine serum; 0.5 mM isobutylmethlxanthine; 4 μg/ml dexamethasone. 3 days later cells were maintained in DMEM containing 10% fetal bovine serum for two weeks, after which the cells were used for cAMP assay.
# […] The incubation was stopped by replacing the medium with lysis regent supplied in a commercial cAMP kit.
# as §3
compound,measurement,setting,value
"CCCCCCCCCCCCC/C=C/[C@@H](O)[C@@H](N)COP(=O)(O)O [S1P, sphingosine-1-phosphate, reference compound]",aortic ring neovascularization in presence of G-protein inhibitor PTX,[1],completely blocked
same,aortic ring neovascularization,[1],caused neovascularization
"FGF: pro-angiogenetic compound; bFGF, human recombinant, in materials","neovascularization effect, each agent alone","[1]; FGF 10 ng/ml, FIG. 8",no effect
"GLLRRHS [K024H107, MC1 receptor Loop 2 derived-modified peptide]",EC50,[2],2000 nM
same,melanogenesis induction,[2],very efficient in inducing melanogenesis
"LGLLRRHSI [K024H124, MC1 receptor Loop 2 derived-modified peptide]",EC50,[2],150 nM
same,melanogenesis induction,[2],very efficient in inducing melanogenesis
R002L103: peptide based on sequence SEQ ID NO:3 of the 2nd loop of EDG3 (FIG. 1A) (MRPYDANKR),angiogenesis in aortic rings,"[1]; 10 μm and 20 μm R002L103, degree at least equal to that of S1P 100 nm, FIG. 3",increase angiogenesis in a dose dependent manner
same,capillary length,"[1]; 20 μm, FIG. 2",decreased
same,"neovascularization effect, each agent alone","[1]; FGF 10 ng/ml, FIG. 8",no effect
same,"neovascularization, combination with FGF","[1]; R002L103 20 μg + FGF 10 ng/ml, FIG. 8",very significant neovascularization
same,"neovascularization, combination with SCF","[1]; R002L103 20 μg + SCF 30 nm/ml, FIG. 7",marked synergism and significant neovascularization
same,"neovascularization, combination with VEGF","[1]; R002L103 20 μg + VEGF 12 nm/ml, FIG. 6",marked and significant neovascularization
same,aortic ring neovascularization in presence of G-protein inhibitor PTX,[1],completely blocked
same,aortic ring neovascularization,[1],caused neovascularization
same,"neovascularization effect, each agent alone","[1]; SCF 30 nm/ml, FIG. 7",no neovascularization effect
same,"angiogenetic effect, each agent alone",[1]; FIG. 6,hardly any angiogenetic effect
same,capillary length,"[1]; from control to 10 μm, FIG. 2",increased
same,capillary thickness,"[1]; various concentrations of R002L103, FIG. 2",directly correlated to the concentration
same,neovascularization in the eye in response to implantation of a pellet,[3]; FIG. 9,marked neovascularization
same,number of blood vessels compared to VEGF,[3]; FIG. 9,larger number of blood vessels
same,blood vessels course of growth,[3],relatively straight
R013L101: β3-adrenergic Loop 2 derived peptide (GNPLRYGALVT),cAMP production comparing to the control level,[4],140%
same,cAMP production comparing to the control level,[5],900%
same,level of cAMP increase,[6]; after 60 min of incubation,18 fold
same,melanogenesis induction,[2],failed as melanogenesis inducers
R013L102: β3-adrenergic Loop 2 derived peptide (GLRYGALVTK),level of cAMP increase,[6]; after 120 min of incubation,did not affect
same,melanogenesis induction,[2],failed as melanogenesis inducers
R013L103: β3-adrenergic Loop 2 derived peptide (GPLRYGALVT),cAMP production comparing to the control level,[4],did not affect
same,cAMP production comparing to the control level,[5],did not affect
same,level of cAMP increase,[6]; after 120 min of incubation,18 fold
same,melanogenesis induction,[2],failed as melanogenesis inducers
SCF: another pro-angiogenetic compound,"neovascularization effect, each agent alone","[1]; SCF 30 nm/ml, FIG. 7",no neovascularization effect
VEGF,"angiogenetic effect, each agent alone",[1]; FIG. 6,hardly any angiogenetic effect
same,neovascularization in the eye in response to implantation of a pellet,[3]; FIG. 9,able to induce neovascularization
same,blood vessels course of growth,[3],more coiled
